# Measured values published in ChEMBL document CHEMBL5724914, “Linking interpersonal differences in gut microbiota composition and drug biotransformation activity” (2024).
# Assay: (§1) The drug is tested on Z-029 corresponding to rat gut metagenome with ENA study accession number: PRJEB37062 and ENA sample accession number: ERS12561828 for biotransformation under anaerobic condition. The drug concentrations were measured over 9 timepoints collected between 0 and 24 hours of incubation by liquid-chromatography-coupled mass spectrometry (LC–MS)
# Details: 2 µM
# Further: call rule not given here.
row,Bacterial Biotransformation,Compound
1,Compound metabolized,CCCCc1nc(Cl)c(CO)n1Cc1ccc(-c2ccccc2-c2nn[nH]n2)cc1 [LOSARTAN]
2,Compound NOT metabolized,Cc1cc2c(cc1S(N)(=O)=O)S(=O)(=O)CCC2

row,Compound,Bacterial Biotransformation
1,OCCN1CCN(CCCN2c3ccccc3Sc3ccc(C(F)(F)F)cc32)CC1 [FLUPHENAZINE],Compound NOT metabolized

# Assay: as §1, with “on Z-018” for “on Z-029”, “to pig” for “to rat”, “number: ERS12561817” for “number: ERS12561828”
# Details: 2 µM
row,Bacterial Biotransformation,Compound
1,Compound NOT metabolized,CCCCc1nc(Cl)c(CO)n1Cc1ccc(-c2ccccc2-c2nn[nH]n2)cc1 [LOSARTAN]
2,Compound NOT metabolized,Cc1cc2c(cc1S(N)(=O)=O)S(=O)(=O)CCC2

row,Compound,Bacterial Biotransformation
1,OCCN1CCN(CCCN2c3ccccc3Sc3ccc(C(F)(F)F)cc32)CC1 [FLUPHENAZINE],Compound NOT metabolized

# Assay: as §1, with “Z-012” for “Z-029”, “to” for “to rat gut”, “ERS12561812” for “ERS12561828”
# Details: 2 µM
row,Bacterial Biotransformation,Compound
1,Compound NOT metabolized,CCCCc1nc(Cl)c(CO)n1Cc1ccc(-c2ccccc2-c2nn[nH]n2)cc1 [LOSARTAN]
2,Compound NOT metabolized,Cc1cc2c(cc1S(N)(=O)=O)S(=O)(=O)CCC2

row,Compound,Bacterial Biotransformation
1,OCCN1CCN(CCCN2c3ccccc3Sc3ccc(C(F)(F)F)cc32)CC1 [FLUPHENAZINE],Compound metabolized

# Assay: as §1, with “Z-007” for “Z-029”, “ERS12561807” for “ERS12561828”
# Details: 2 µM
row,Bacterial Biotransformation,Compound
1,Compound NOT metabolized,CCCCc1nc(Cl)c(CO)n1Cc1ccc(-c2ccccc2-c2nn[nH]n2)cc1 [LOSARTAN]
2,Compound NOT metabolized,Cc1cc2c(cc1S(N)(=O)=O)S(=O)(=O)CCC2

row,Compound,Bacterial Biotransformation
1,OCCN1CCN(CCCN2c3ccccc3Sc3ccc(C(F)(F)F)cc32)CC1 [FLUPHENAZINE],Compound NOT metabolized

# Assay: as §1, with “Z-005” for “Z-029”, “to” for “to rat gut”, “ERS12561805” for “ERS12561828”
# Details: 2 µM
row,Bacterial Biotransformation,Compound
1,Compound NOT metabolized,CCCCc1nc(Cl)c(CO)n1Cc1ccc(-c2ccccc2-c2nn[nH]n2)cc1 [LOSARTAN]
2,Compound NOT metabolized,Cc1cc2c(cc1S(N)(=O)=O)S(=O)(=O)CCC2

row,Compound,Bacterial Biotransformation
1,OCCN1CCN(CCCN2c3ccccc3Sc3ccc(C(F)(F)F)cc32)CC1 [FLUPHENAZINE],Compound metabolized

# Assay: as §1, with “on Z-003” for “on Z-029”, “to pig” for “to rat”, “number: ERS12561803” for “number: ERS12561828”
# Details: 2 µM
row,Bacterial Biotransformation,Compound
1,Compound NOT metabolized,CCCCc1nc(Cl)c(CO)n1Cc1ccc(-c2ccccc2-c2nn[nH]n2)cc1 [LOSARTAN]
2,Compound NOT metabolized,Cc1cc2c(cc1S(N)(=O)=O)S(=O)(=O)CCC2

row,Compound,Bacterial Biotransformation
1,OCCN1CCN(CCCN2c3ccccc3Sc3ccc(C(F)(F)F)cc32)CC1 [FLUPHENAZINE],Compound metabolized

# Assay: as §1, with “on WLS-350” for “on Z-029”, “to human” for “to rat”, “number: ERS12561789” for “number: ERS12561828”
# Details: 2 µM
row,Bacterial Biotransformation,Compound
1,Compound metabolized,CCCCc1nc(Cl)c(CO)n1Cc1ccc(-c2ccccc2-c2nn[nH]n2)cc1 [LOSARTAN]
2,Compound NOT metabolized,Cc1cc2c(cc1S(N)(=O)=O)S(=O)(=O)CCC2

row,Compound,Bacterial Biotransformation
1,OCCN1CCN(CCCN2c3ccccc3Sc3ccc(C(F)(F)F)cc32)CC1 [FLUPHENAZINE],Compound metabolized

# Assay: as §1, with “on WLS-240” for “on Z-029”, “to human” for “to rat”, “number: ERS12561773” for “number: ERS12561828”
# Details: 2 µM
row,Bacterial Biotransformation,Compound
1,Compound metabolized,CCCCc1nc(Cl)c(CO)n1Cc1ccc(-c2ccccc2-c2nn[nH]n2)cc1 [LOSARTAN]
2,Compound NOT metabolized,Cc1cc2c(cc1S(N)(=O)=O)S(=O)(=O)CCC2

row,Compound,Bacterial Biotransformation
1,OCCN1CCN(CCCN2c3ccccc3Sc3ccc(C(F)(F)F)cc32)CC1 [FLUPHENAZINE],Compound metabolized

# Assay: as §1, with “on WLS-082” for “on Z-029”, “to human” for “to rat”, “number: ERS12561751” for “number: ERS12561828”
# Details: 2 µM
row,Bacterial Biotransformation,Compound
1,Compound metabolized,CCCCc1nc(Cl)c(CO)n1Cc1ccc(-c2ccccc2-c2nn[nH]n2)cc1 [LOSARTAN]
2,Compound NOT metabolized,Cc1cc2c(cc1S(N)(=O)=O)S(=O)(=O)CCC2

row,Compound,Bacterial Biotransformation
1,OCCN1CCN(CCCN2c3ccccc3Sc3ccc(C(F)(F)F)cc32)CC1 [FLUPHENAZINE],Compound metabolized

# Details: human gut metagenome, 24 h, 2 µM
row,Bacterial Biotransformation,Compound
1,Compound NOT metabolized,CCCCc1nc(Cl)c(CO)n1Cc1ccc(-c2ccccc2-c2nn[nH]n2)cc1 [LOSARTAN]
2,Compound NOT metabolized,Cc1cc2c(cc1S(N)(=O)=O)S(=O)(=O)CCC2

row,Compound,Bacterial Biotransformation
1,OCCN1CCN(CCCN2c3ccccc3Sc3ccc(C(F)(F)F)cc32)CC1 [FLUPHENAZINE],Compound metabolized

# Details: human gut metagenome, 24 h, 2 µM
# Remark: another data set of the same source
row,Bacterial Biotransformation,Compound
1,Compound metabolized,CCCCc1nc(Cl)c(CO)n1Cc1ccc(-c2ccccc2-c2nn[nH]n2)cc1 [LOSARTAN]
2,Compound NOT metabolized,Cc1cc2c(cc1S(N)(=O)=O)S(=O)(=O)CCC2

row,Compound,Bacterial Biotransformation
1,OCCN1CCN(CCCN2c3ccccc3Sc3ccc(C(F)(F)F)cc32)CC1 [FLUPHENAZINE],Compound metabolized

# Details: human gut metagenome, 24 h, 2 µM
# Remark: another data set of the same source
row,Bacterial Biotransformation,Compound
1,Compound metabolized,CCCCc1nc(Cl)c(CO)n1Cc1ccc(-c2ccccc2-c2nn[nH]n2)cc1 [LOSARTAN]
2,Compound NOT metabolized,Cc1cc2c(cc1S(N)(=O)=O)S(=O)(=O)CCC2

row,Compound,Bacterial Biotransformation
1,OCCN1CCN(CCCN2c3ccccc3Sc3ccc(C(F)(F)F)cc32)CC1 [FLUPHENAZINE],Compound metabolized

# Details: human gut metagenome, 24 h, 2 µM
# Remark: another data set of the same source
row,Bacterial Biotransformation,Compound
1,Compound metabolized,CCCCc1nc(Cl)c(CO)n1Cc1ccc(-c2ccccc2-c2nn[nH]n2)cc1 [LOSARTAN]
2,Compound NOT metabolized,Cc1cc2c(cc1S(N)(=O)=O)S(=O)(=O)CCC2

row,Compound,Bacterial Biotransformation
1,OCCN1CCN(CCCN2c3ccccc3Sc3ccc(C(F)(F)F)cc32)CC1 [FLUPHENAZINE],Compound metabolized

# Details: human gut metagenome, 24 h, 2 µM
# Remark: another data set of the same source
row,Bacterial Biotransformation,Compound
1,Compound NOT metabolized,CCCCc1nc(Cl)c(CO)n1Cc1ccc(-c2ccccc2-c2nn[nH]n2)cc1 [LOSARTAN]
2,Compound NOT metabolized,Cc1cc2c(cc1S(N)(=O)=O)S(=O)(=O)CCC2

row,Compound,Bacterial Biotransformation
1,OCCN1CCN(CCCN2c3ccccc3Sc3ccc(C(F)(F)F)cc32)CC1 [FLUPHENAZINE],Compound metabolized

# Details: human gut metagenome, 24 h, 2 µM
# Remark: another data set of the same source
row,Bacterial Biotransformation,Compound
1,Compound NOT metabolized,CCCCc1nc(Cl)c(CO)n1Cc1ccc(-c2ccccc2-c2nn[nH]n2)cc1 [LOSARTAN]
2,Compound NOT metabolized,Cc1cc2c(cc1S(N)(=O)=O)S(=O)(=O)CCC2

row,Compound,Bacterial Biotransformation
1,OCCN1CCN(CCCN2c3ccccc3Sc3ccc(C(F)(F)F)cc32)CC1 [FLUPHENAZINE],Compound NOT metabolized

# Details: human gut metagenome, 24 h, 2 µM
# Remark: another data set of the same source
row,Bacterial Biotransformation,Compound
1,Compound metabolized,CCCCc1nc(Cl)c(CO)n1Cc1ccc(-c2ccccc2-c2nn[nH]n2)cc1 [LOSARTAN]
2,Compound NOT metabolized,Cc1cc2c(cc1S(N)(=O)=O)S(=O)(=O)CCC2

row,Compound,Bacterial Biotransformation
1,OCCN1CCN(CCCN2c3ccccc3Sc3ccc(C(F)(F)F)cc32)CC1 [FLUPHENAZINE],Compound metabolized

# Details: human gut metagenome, 24 h, 2 µM
# Remark: another data set of the same source
row,Bacterial Biotransformation,Compound
1,Compound metabolized,CCCCc1nc(Cl)c(CO)n1Cc1ccc(-c2ccccc2-c2nn[nH]n2)cc1 [LOSARTAN]
2,Compound NOT metabolized,Cc1cc2c(cc1S(N)(=O)=O)S(=O)(=O)CCC2

row,Compound,Bacterial Biotransformation
1,OCCN1CCN(CCCN2c3ccccc3Sc3ccc(C(F)(F)F)cc32)CC1 [FLUPHENAZINE],Compound metabolized

# Details: human gut metagenome, 24 h, 2 µM
# Remark: another data set of the same source
row,Bacterial Biotransformation,Compound
1,Compound metabolized,CCCCc1nc(Cl)c(CO)n1Cc1ccc(-c2ccccc2-c2nn[nH]n2)cc1 [LOSARTAN]
2,Compound NOT metabolized,Cc1cc2c(cc1S(N)(=O)=O)S(=O)(=O)CCC2

row,Compound,Bacterial Biotransformation
1,OCCN1CCN(CCCN2c3ccccc3Sc3ccc(C(F)(F)F)cc32)CC1 [FLUPHENAZINE],Compound metabolized

# Details: human gut metagenome, 24 h, 2 µM
# Remark: another data set of the same source
row,Bacterial Biotransformation,Compound
1,Compound metabolized,CCCCc1nc(Cl)c(CO)n1Cc1ccc(-c2ccccc2-c2nn[nH]n2)cc1 [LOSARTAN]
2,Compound NOT metabolized,Cc1cc2c(cc1S(N)(=O)=O)S(=O)(=O)CCC2

row,Compound,Bacterial Biotransformation
1,OCCN1CCN(CCCN2c3ccccc3Sc3ccc(C(F)(F)F)cc32)CC1 [FLUPHENAZINE],Compound metabolized

# Details: human gut metagenome, 24 h, 2 µM
# Remark: another data set of the same source
row,Bacterial Biotransformation,Compound
1,Compound metabolized,CCCCc1nc(Cl)c(CO)n1Cc1ccc(-c2ccccc2-c2nn[nH]n2)cc1 [LOSARTAN]
2,Compound NOT metabolized,Cc1cc2c(cc1S(N)(=O)=O)S(=O)(=O)CCC2

row,Compound,Bacterial Biotransformation
1,OCCN1CCN(CCCN2c3ccccc3Sc3ccc(C(F)(F)F)cc32)CC1 [FLUPHENAZINE],Compound metabolized
